Common to all, as to experiment: NCI tumour cell line growth inhibition, 48 h
In test [1] the test system is 786-0.
For test [2], the system named is A549.
Test [3] relates to CAKI-1.
Test [4] relates to DU-145.
The subject of test [5] is HCC 2998.
The test system of test [6] is HOP-62.
Test [7] has as its system Hs-578T.
Test [8] concerns IGROV-1.
Test [9] relates to MDA-MB-435.
For test [10], the system named is NCI/ADR-RES.
The subject of test [11] is OVCAR-5.
The test system of test [12] is RPMI-8226.
In test [13] the test system is RXF 393.
Test [14] concerns SF-539.
Test [15] has as its system T47D.
Test [16] deals with U-251.
Test [17] has as its system UACC-62.
For test [18], the system named is UO-31.
Test [19] relates to A498.

The values that follow come from ChEMBL document CHEMBL1201862, “PubChem BioAssay data set” (2004).

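Growth conditions: 96-well plates. Treatment: test compound, 48 hours, 5 concentrations. Analysis: linear interpolation between bracketing concentrations; unreached endpoints set to highest concentration. Abbreviation: GI50, concentration required for 50% inhibition of growth.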 Active and inactive are the calls of the source. Rule as the data show it: active = GI50 up to about 1.1 µM and inactive = higher. Some results are limits rather than exact numbers.

For `CC(C)(NO)/C(=N\O)c1ccco1`, the GI50 in test [1], in test [2], in [3], in [4], in test [5] and in test [6] was > 100 µM (inactive) throughout. The GI50 is 24 µM (inactive) in [7]; > 100 µM (inactive) in test [8]; > 100 µM (inactive) in test [9]; > 100 µM (inactive) in test [10]; > 100 µM (inactive) in test [11]; > 100 µM (inactive) in test [12]. Further, the GI50 in [13], in test [14], in test [15], in test [16], in [17] and in test [18] was > 100 µM (inactive) in each case.
With `Cc1nc(C(N)=S)sc1C(=O)CC(=O)C(=O)Nc1c(C(C)C)cccc1C(C)C`, the GI50 in test [1] was 50.4 µM (inactive); in test [19], 71 µM (inactive); in test [2], 35.8 µM (inactive); in [3] it was 42.1 µM (inactive); in test [5], 43.3 µM (inactive); in [6] it was 86.9 µM (inactive). Also, the GI50 in [8] was 61.4 µM (inactive); in [11], > 100 µM (inactive); in [12] it was 55.8 µM (inactive); in test [13], 20.3 µM (inactive); in test [14] it was 44.4 µM (inactive); in [16], 36.6 µM (inactive). Moreover, the GI50 in test [17] was 42.5 µM (inactive); in test [18] it was 39.3 µM (inactive).
As for `COC(=O)/C(=N/NC(N)=O)C(C(=O)OC)C(=O)C(=O)Nc1ccc(Cl)cc1` (stereo not given), the GI50 in [1], in [19], in test [2], in [3], in [5] and in test [6] was > 100 µM (inactive) throughout. For the same compound, the GI50 in test [8], in [11], in test [12], in test [13], in test [14] and in test [16] was > 100 µM (inactive) in each case. Further, the GI50 in test [17] and in [18] was > 100 µM (inactive) in each case.
Consider `ClC1c2ccccc2C2(c3ccccc3)OOC1(c1ccccc1)O2` (stereo not given), for which the GI50 in [1] was 1.61 µM (inactive); in test [19] it was 2.39 µM (inactive); in test [2] it was 1.86 µM (inactive); in test [3], 2.37 µM (inactive); in test [5] it was 2.34 µM (inactive); in [6], 10.3 µM (inactive). Besides, the GI50 is 4.24 µM (inactive) in test [11]; 0.716 µM (active) in [12]; 1.4 µM (inactive) in [13]; 2.31 µM (inactive) in [14]; 1.9 µM (inactive) in [16]; 1.87 µM (inactive) in test [17]. The GI50 in test [18] is 1.69 µM (inactive).
As to `CC(C)(C)NC(NC(C)(C)C)=C(/C=C(/Cl)[N+](=O)[O-])[N+](=O)[O-]`, the GI50 is 34.7 µM (inactive) in [1]; > 100 µM (inactive) in [19]; 25.7 µM (inactive) in [2]; > 100 µM (inactive) in test [3]; > 100 µM (inactive) in [4]; 62.1 µM (inactive) in [5]. For the same compound, the GI50 in [6] was > 100 µM (inactive); in test [7], 56.9 µM (inactive); in test [8] it was 51.8 µM (inactive); in [9], 19.5 µM (inactive); in [11], > 100 µM (inactive); in test [12], 67.3 µM (inactive). For the same compound, the GI50 in test [13] is > 100 µM (inactive); in [14], 38.3 µM (inactive); in test [15], 68.5 µM (inactive); in [16] it was > 100 µM (inactive); in [17] it was 42.6 µM (inactive); in test [18], > 100 µM (inactive).
For `O=Cc1ccccc1OCCOc1cc(OCCOc2ccccc2C=O)c(OCCOc2ccccc2C=O)cc1OCCOc1ccccc1C=O`, the GI50 in test [1] is 24.2 µM (inactive); in test [19] it was > 100 µM (inactive); in test [2], > 100 µM (inactive); in [3], > 70.6 µM (inactive); in test [5], > 100 µM (inactive); in [6], 70.3 µM (inactive). In addition, the GI50 was > 62.8 µM (inactive) in test [8]; > 100 µM (inactive) in test [11]; 90.6 µM (inactive) in [12]; 29.6 µM (inactive) in test [13]; > 44.5 µM (inactive) in [14]; 12.6 µM (inactive) in test [16]. For the same compound, the values for the GI50 in [17] and in [18] were > 100 µM (inactive) and > 52.8 µM (inactive), respectively.
`CN(C)CCNC(=O)c1cc([N+](=O)[O-])cc2ccc(-c3ccccc3)nc12`: the GI50 in [1] is 16.4 µM (inactive); in test [19], 3.78 µM (inactive); in test [2], 7.64 µM (inactive); in test [3], 10 µM (inactive); in test [5], 7.36 µM (inactive); in test [6], 12.9 µM (inactive). Also, the GI50 was 6.92 µM (inactive) in test [8]; 2.17 µM (inactive) in [10]; 6.4 µM (inactive) in [11]; 17.7 µM (inactive) in test [12]; 6.04 µM (inactive) in test [13]; 7.66 µM (inactive) in test [14]. The GI50 is 10.2 µM (inactive) in test [16], 4.62 µM (inactive) in test [17] and 2.9 µM (inactive) in test [18].
On to `NC1CCCCC1.O=P(O)(O)C1(P(=O)(O)O)CC1`, for which the GI50 in test [1], in [19], in test [2], in test [3], in [5] and in test [6] was > 100 µM (inactive) each time. Moreover, the GI50 in [8], in [11], in test [12], in test [13], in [14] and in test [16] was > 100 µM (inactive) each time. Moreover, the GI50 in test [17] and in test [18] was > 100 µM (inactive) each time.
Regarding `N#CC(C(=O)CCC(=O)Nc1cccc(C(F)(F)F)c1)c1ccccc1` (stereo not given), the GI50 in [1], in test [19], in test [2], in test [3], in test [5] and in [6] was > 100 µM (inactive) in each case. Also, the GI50 in test [8], in [11], in [12], in test [13], in test [14] and in test [16] was > 100 µM (inactive) each time. The GI50 in test [17] and in test [18] was > 100 µM (inactive) each time.
Take `Cc1ccccc1NC(=O)Cc1csc(N/N=C2\C(=O)Nc3ccccc32)n1`: the GI50 in test [1] is 43 µM (inactive); in test [19], > 100 µM (inactive); in test [2] it was 48.9 µM (inactive); in test [3] it was 19.9 µM (inactive); in test [4], 75 µM (inactive); in test [7] it was 25.8 µM (inactive). The GI50 is 33.9 µM (inactive) in test [8]; 1 µM (active) in [9]; 29.7 µM (inactive) in [10]; 41.7 µM (inactive) in test [11]; 31 µM (inactive) in [12]; 28.8 µM (inactive) in test [13]. Moreover, the GI50 in [14] was 17.9 µM (inactive); in [16], 1 µM (active); in test [17], 49.9 µM (inactive); in test [18] it was 40.8 µM (inactive).
In the case of `O=C1/C(=c2\s/c(=C\c3ccccc3)c(=O)n2-c2ccccc2)SC(=S)N1c1ccccc1`, the GI50 in test [1] is 45.8 µM (inactive); in test [19], 39.2 µM (inactive); in test [2], 34.8 µM (inactive); in test [3], 0.131 µM (active); in [4], 37.2 µM (inactive); in test [5] it was 70.5 µM (inactive). In addition, the GI50 was 34.4 µM (inactive) in test [7]; 25 µM (inactive) in [8]; 49.8 µM (inactive) in [9]; 28 µM (inactive) in test [10]; > 100 µM (inactive) in test [11]; 56.8 µM (inactive) in test [12]. The GI50 in [13] was 34 µM (inactive); in test [14] it was 21.5 µM (inactive); in [16], 23.4 µM (inactive); in test [17] it was 35.6 µM (inactive).
In the case of `CC(C)(C)C(=O)ON1N=NC2C3CC(OCc4ccccc4)(OCc4ccccc4)C(O3)C21` (stereo not given), the GI50 in test [1] is 18.5 µM (inactive); in [19], 35.7 µM (inactive); in test [2], 32.7 µM (inactive); in test [3], 31 µM (inactive); in test [5], 14.2 µM (inactive); in test [6] it was 28.3 µM (inactive). Further, the GI50 is 35.1 µM (inactive) in test [8]; 33.6 µM (inactive) in [11]; 7.38 µM (inactive) in [12]; 15.8 µM (inactive) in [13]; 16.3 µM (inactive) in test [14]; 16.9 µM (inactive) in test [16]. For the same compound, the GI50 in [17] was 18.5 µM (inactive); in test [18], 22.4 µM (inactive).
On to `COC1=C2C[C@@H](C)C[C@@H](OC)[C@@H](O)[C@H](C)/C=C(\C)[C@@H](OC(N)=O)[C@H](OC)/C=C\C=C(/C)C(=O)NC(=CC1=O)C2=O`, for which the GI50 in [1] is 0.0762 µM (active); in test [2] it was 5.78 µM (inactive); in test [3], 1.77 µM (inactive); in test [4], 0.106 µM (active); in [6], 3.38 µM (inactive); in test [8], 0.29 µM (active). The GI50 in test [9] is 0.0309 µM (active); in test [10] it was 10.1 µM (inactive); in test [11], 6.87 µM (inactive); in test [12] it was 0.138 µM (active); in [13] it was 0.0818 µM (active); in test [14] it was 0.132 µM (active). Besides, the GI50 in test [16] was 2.93 µM (inactive); in test [17] it was 0.122 µM (active); in test [18], 0.189 µM (active).
